From ChEMBL document CHEMBL4002634, “Benzoflavones as cholesterol esterase inhibitors: Synthesis, biological evaluation and docking studies” (Bioorg Med Chem Lett, 2017)

Experiments:
[1] = biological target: T1, Carboxylic ester hydrolase (Sus scrofa) (UniProt A0A286ZKB1); assay: Inhibition of porcine cholesterol esterase at 10 nM using para-nitrophenyl butyrate as substrate after 5 mins in presence of sodium taurocholate by spectrophotometric method relative to control
T1 sequence (whole entry): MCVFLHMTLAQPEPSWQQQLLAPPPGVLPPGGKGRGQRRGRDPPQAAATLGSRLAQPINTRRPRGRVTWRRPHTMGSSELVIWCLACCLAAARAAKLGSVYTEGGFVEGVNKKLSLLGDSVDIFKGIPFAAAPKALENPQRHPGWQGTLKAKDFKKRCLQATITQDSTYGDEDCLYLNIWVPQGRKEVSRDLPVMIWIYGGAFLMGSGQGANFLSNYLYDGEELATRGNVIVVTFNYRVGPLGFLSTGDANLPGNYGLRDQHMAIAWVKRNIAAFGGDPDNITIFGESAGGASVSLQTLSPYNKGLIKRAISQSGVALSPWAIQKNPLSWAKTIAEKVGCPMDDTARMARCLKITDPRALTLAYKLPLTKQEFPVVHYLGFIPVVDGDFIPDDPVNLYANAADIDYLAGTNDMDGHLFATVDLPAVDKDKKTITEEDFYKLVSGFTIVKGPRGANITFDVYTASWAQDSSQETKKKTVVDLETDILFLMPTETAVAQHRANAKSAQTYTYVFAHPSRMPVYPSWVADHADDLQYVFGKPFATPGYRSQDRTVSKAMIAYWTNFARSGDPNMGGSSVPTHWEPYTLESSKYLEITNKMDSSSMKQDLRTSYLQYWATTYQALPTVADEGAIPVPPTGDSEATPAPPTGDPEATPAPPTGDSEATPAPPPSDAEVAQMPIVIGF

[2] = biological target: T1, Carboxylic ester hydrolase (Sus scrofa); assay: Inhibition of porcine cholesterol esterase at 25 nM using para-nitrophenyl butyrate as substrate after 5 mins in presence of sodium taurocholate by spectrophotometric method relative to control
[3] = biological target: T1, Carboxylic ester hydrolase (Sus scrofa); assay: Inhibition of porcine cholesterol esterase at 50 nM using para-nitrophenyl butyrate as substrate after 5 mins in presence of sodium taurocholate by spectrophotometric method relative to control
[4] = biological target: T1, Carboxylic ester hydrolase (Sus scrofa); assay: Inhibition of porcine cholesterol esterase at 5 nM using para-nitrophenyl butyrate as substrate after 5 mins in presence of sodium taurocholate by spectrophotometric method relative to control
[5] = biological target: T2, Carboxylic ester hydrolase (Sus scrofa, UniProt A0A286ZKB1); assay: Inhibition of porcine cholesterol esterase using para-nitrophenyl butyrate as substrate after 5 mins in presence of sodium taurocholate by spectrophotometric method
T2 sequence (A0A286ZKB1 whole entry): T1 sequence (whole entry)

[6] = biological target: T1, Carboxylic ester hydrolase (Sus scrofa); assay: Inhibition of porcine cholesterol esterase at 1 nM using para-nitrophenyl butyrate as substrate after 5 mins in presence of sodium taurocholate by spectrophotometric method relative to control

| SMILES | inhibition [1] [%] | inhibition [2] [%] | inhibition [3] [%] | inhibition [4] [%] | IC50 [5] | inhibition [6] [%] | IC50 ([5]; read-out: IC50) [nM] |
| --- | --- | --- | --- | --- | --- | --- | --- |
| Cc1ccc(-c2cc(=O)c3ccc4ccccc4c3o2)cc1 | 24 | 31 | 34 | 18 | Not Active | 14 | – |
| O=c1cc(-c2c(F)cccc2C(F)(F)F)oc2c1ccc1ccccc12 | 52 | 59 | 64 | 48 | – | 31 | 38.9 |
| O=c1cc(-c2cc(C(F)(F)F)cc(C(F)(F)F)c2)oc2c1ccc1ccccc12 | 34 | 42 | 54 | 28 | Not Active | 21 | – |
| O=c1cc(-c2cccc(C(F)(F)F)c2)oc2c1ccc1ccccc12 | 34 | 47 | 57 | 30 | Not Active | 26 | – |
| O=c1cc(-c2ccc(F)c(F)c2)oc2c1ccc1ccccc12 | 76 | 79 | 81 | 68 | – | 48 | 14.1 |
| O=c1cc(-c2ccccc2)oc2c1ccc1ccccc12 [ALPHA-NAPHTHOFLAVONE] | 40 | 48 | 51 | 33 | – | 28 | 47.8 |
| O=c1cc(-c2cccc(Cl)c2Cl)oc2c1ccc1ccccc12 | 78 | 82 | 84 | 64 | – | 50 | 10.8 |
| COc1ccc(-c2cc(=O)c3ccc4ccccc4c3o2)c(OC)c1 | 21 | 25 | 28 | 12 | Not Active | 6 | – |
| O=c1cc(-c2ccc([N+](=O)[O-])cc2)oc2c1ccc1ccccc12 | 68 | 69 | 70 | 47 | – | 35 | 37.3 |
| O=c1cc(-c2cccc(Br)c2)oc2c1ccc1ccccc12 | 73 | 76 | 78 | 57 | – | 43 | 26.1 |
| COc1ccc(-c2cc(=O)c3ccc4ccccc4c3o2)cc1OC | 20 | 23 | 25 | 14 | Not Active | 5 | – |
| CN(C)c1ccc(-c2cc(=O)c3ccc4ccccc4c3o2)cc1 | 18 | 21 | 23 | 12 | Not Active | 9 | – |
| O=c1cc(-c2ccc(F)cc2F)oc2c1ccc1ccccc12 | 80 | 91 | 97 | 66 | – | 51 | 1.43 |
| CC(=O)Oc1cccc(-c2cc(=O)c3ccc4ccccc4c3o2)c1 | 36 | 47 | 55 | 27 | Not Active | 23 | – |
| COc1ccc(-c2cc(=O)c3ccc4ccccc4c3o2)cc1 | 22 | 28 | 31 | 18 | Not Active | 11 | – |
| O=c1cc(-c2ccc(I)cc2)oc2c1ccc1ccccc12 | 71 | 73 | 75 | 53 | – | 38 | 34.1 |
| O=c1cc(-c2cc([N+](=O)[O-])cc([N+](=O)[O-])c2)oc2c1ccc1ccccc12 | 72 | 75 | 76 | 54 | – | 41 | 30 |
| O=c1cc(-c2ccccc2C(F)(F)F)oc2c1ccc1ccccc12 | 36 | 48 | 58 | 32 | Not Active | 29 | – |
| O=c1cc(-c2ccccc2Br)oc2c1ccc1ccccc12 | 79 | 81 | 83 | 66 | – | 51 | 11 |

| SMILES | inhibition [1] [%] | inhibition [2] [%] | inhibition [3] [%] | inhibition [4] [%] | IC50 [5] | inhibition [6] [%] | IC50 ([5]; read-out: IC50) [nM] |
| --- | --- | --- | --- | --- | --- | --- | --- |
| O=c1cc(-c2ccccc2F)oc2c1ccc1ccccc12 | 81 | 84 | 89 | 65 | – | 50 | 3.22 |
| O=c1cc(-c2ccc(C(F)(F)F)cc2)oc2c1ccc1ccccc12 | 35 | 46 | 56 | 29 | Not Active | 25 | – |
| O=c1cc(-c2ccc(F)cc2C(F)(F)F)oc2c1ccc1ccccc12 | 44 | 55 | 63 | 38 | – | 28 | 39.1 |
| O=c1cc(-c2cccc([N+](=O)[O-])c2)oc2c1ccc1ccccc12 | 71 | 75 | 78 | 51 | – | 36 | 25.1 |
| O=c1cc(-c2cccc(CCl)c2)oc2c1ccc1ccccc12 | 52 | 62 | 68 | 45 | – | 35 | 40 |
| O=c1cc(-c2ccc(CCl)cc2)oc2c1ccc1ccccc12 | 48 | 60 | 66 | 43 | – | 32 | 39.2 |
| O=c1cc(-c2ccc(F)c(C(F)(F)F)c2)oc2c1ccc1ccccc12 | 43 | 55 | 63 | 34 | – | 21 | 43 |
| O=c1cc(-c2ccc(F)cc2)oc2c1ccc1ccccc12 | 73 | 75 | 79 | 62 | – | 46 | 20.1 |
| O=c1cc(-c2c(F)cccc2F)oc2c1ccc1ccccc12 | 83 | 88 | 92 | 71 | – | 54 | 1.99 |
| O=c1cc(-c2cc(F)cc(C(F)(F)F)c2)oc2c1ccc1ccccc12 | 41 | 54 | 62 | 38 | – | 27 | 43 |
| O=c1cc(-c2cc(F)ccc2F)oc2c1ccc1ccccc12 | 79 | 84 | 86 | 65 | – | 49 | 6.81 |
| O=c1cc(-c2cccc(Cl)c2)oc2c1ccc1ccccc12 | 80 | 83 | 85 | 68 | – | 51 | 6.99 |
| O=c1cc(-c2ccc(OC(F)(F)F)cc2)oc2c1ccc1ccccc12 | 35 | 42 | 46 | 26 | Not Active | 20 | – |
| O=c1cc(-c2ccc(Br)cc2)oc2c1ccc1ccccc12 | 74 | 76 | 77 | 59 | – | 40 | 28.5 |
| O=c1cc(-c2cccc(OC(F)(F)F)c2)oc2c1ccc1ccccc12 | 32 | 39 | 44 | 24 | Not Active | 17 | – |
| CC(=O)Oc1ccc(-c2cc(=O)c3ccc4ccccc4c3o2)cc1 | 34 | 46 | 56 | 28 | Not Active | 21 | – |
| O=c1cc(-c2ccc(C(F)(F)F)cc2F)oc2c1ccc1ccccc12 | 51 | 62 | 67 | 43 | – | 33 | 39 |
| O=c1cc(-c2ccccc2I)oc2c1ccc1ccccc12 | 78 | 79 | 80 | 64 | – | 46 | 16.1 |
| O=c1cc(-c2cc(F)ccc2C(F)(F)F)oc2c1ccc1ccccc12 | 41 | 54 | 63 | 34 | – | 26 | 41.3 |
